Laboratory results taken from a melting point compilation (Tetko et al.; mined from patent text by program, amines drawn as free bases though some values may be those of a salt).

Row | melting point | Structure (SMILES)
1 | 110 °C | COc1ccc2ccc(N3C(=O)c4ccccc4C3CC(O)CCC(C)C)nc2n1 (centres undefined)
2 | 136 °C | CCOC(=O)c1ccccc1Cn1c(C(=O)O)cc2ccccc21
3 | 202 to 206 °C | Cc1nc2c(N)nc3ccccc3c2n1CCCCCCS(C)(=O)=O
4 | 212 to 213 °C | O=S(=O)(c1ccccc1)N1CCC(Nc2nc(OCC(F)(F)F)nc(N3CCCC3)n2)CC1
5 | 58 to 59 °C | CCOC(=O)CN1C(=O)C2(COc3cc4c(cc32)OCCO4)c2ccccc21 (centres undefined)
6 | 260 to 262 °C | CC(C)C(=O)OC1c2nccnc2C(=O)N1c1ccc2ccc(Cl)nc2n1 (centres undefined)
7 | 147 to 149 °C | CCOc1nc(C)c2cc(OC)c(OC)cc2c1C(=O)OC
8 | 245 to 246 °C | Cc1ccc2nc(NC(=O)c3ccc(C(C)(C)CCc4nnn[nH]4)cc3)cn2c1
9 | 85 to 88 °C | c1cnc(N2CCN(CCCCn3cnc4ccccc43)CC2)nc1
10 | 166 to 169 °C | CC(C)(C)OC(=O)N1CC[C@H]2c3c(-c4ccccc4F)cccc3N(C(=O)OC(C)(C)C)[C@H]2CC1 (relative stereo)
11 | 141 to 144 °C | CN=C(NS(=O)(=O)N1CCCCC1)C1=NN(c2ccc(Cl)cc2)C(c2ccccc2)C1 (centres undefined)
12 | 153 to 155 °C | CCSc1ccc(/C=C(\NC(=O)c2ccc(OCC(C)C)cc2)C(=O)NCCO)cc1
13 | 188 to 189 °C | CCC(CC)c1ccc(OC)c2nc(Nc3c(C)cc(Cl)cc3OC)n(C)c12
14 | 213 to 215 °C | O=C1c2cc3ccc4c(c3c(-c3ccc5c(c3)OCO5)c2CN1CCCO)OCO4
15 | 116 to 117 °C | CC(C)(C)OC(=O)NCCNC(=O)c1ncsc1-c1cccc(OCc2cccc(Cl)c2)c1
16 | 101 to 103 °C | COc1cccc2c(Cc3nc(-c4ccccc4)co3)coc12
17 | 171 to 173 °C | COc1cc(C(C)=O)ccc1OCCCN1CCC(c2n[nH]c3ccccc23)CC1
18 | 116 to 118 °C | COC(=O)/C=C/C1=C(c2ccc(OC)cc2)c2ccc(OC)cc2CC1
19 | 138 °C | COc1ccc(C2=NO[C@]3(CCOC3)C2)cc1OC1Cc2ccccc2C1
20 | > 280 °C | CCn1c(=O)c2[nH]c(/C=C/c3ccc(OC)c(Br)c3)nc2n(CC)c1=O
21 | 269 to 270 °C | CCCn1c(=O)c2[nH]c(/C=C/c3ccccc3Cl)nc2n(CCC)c1=O
22 | 184 to 185 °C | Cc1ccccc1CC(C(=O)Nc1nc2cc(Cl)ccc2o1)c1ccc(S(C)(=O)=O)cc1 (centres undefined)
23 | 115 to 116 °C | CC(C)(C)NCCNC(=O)Cn1ncc(-c2ccccc2)c1-c1ccccc1

Row | melting point | Structure (SMILES)
24 | 166 to 169 °C | O=C(O)COc1c(-c2cccc(C(F)(F)F)c2)cc(C(=O)NCCCCCCc2ccccc2)cc1-c1cccc(C(F)(F)F)c1
25 | 201 to 202 °C | CS(=O)c1ccc(-c2nn3c(c2-c2ccncc2)NCCC3)cc1 (centres undefined)
26 | 282 to 284 °C | CCOc1cc2ncc(C#N)c(Nc3ccc4c(C)cc(=O)oc4c3)c2cc1OCC
27 | 213 °C | COCc1cc(O)n2nc(SCc3ccccc3)nc2n1
28 | 278 to 280 °C | Cc1nc(-n2ccc(OCc3ccc(C(F)(F)F)cc3)cc2=O)sc1C(=O)NCc1ccccc1
29 | 148 to 149 °C | NC(=O)c1ccc(OCCn2ccnc2)cc1
30 | > 260 °C | O=C(CI)Oc1cccc2c1C(=O)c1cn3c(c1C2=O)Cc1ccccc1C3
31 | 167 °C | COc1cccc(CCN2C(=O)c3ccccc3C2(O)c2ccc(C(F)(F)F)cc2)c1 (centres undefined)
32 | 105 to 107 °C | CN(C(=O)c1ccc2c(c1)nc(NC(=O)c1cccs1)n2CCCO)C1CCCCC1
33 | 220 °C | O=c1[nH]c2ccc3c(c2o1)OC(CNCc1ccccc1)CO3 (centres undefined)
34 | 165 to 167 °C | COC1CCN(S(=O)(=O)c2ccc(S(N)(=O)=O)c(Cl)c2)CC1
35 | 204 to 207 °C | OCc1nc2n(n1)-c1ccc(Cl)cc1N(c1ccccc1)C2
36 | 189 to 191 °C | O=C(C=Cc1cncc(O)c1)NCCCN1CCN(C(c2ccccc2)c2ccccc2)CC1
37 | 49 to 50 °C | CCOC(=O)CN(CC(=O)OCC)C(=O)c1cc(OCCCCCCCCCCCCOc2ccccc2)ccc1OCc1ccccc1
38 | 156 to 157 °C | Cc1cc(CCCOc2c(Cl)cc(C(=O)O)cc2Cl)on1
39 | 144 to 145 °C | CCOC(=O)c1c(O)c(O)c(C(=O)OCC)n1Cc1ccccc1
40 | 133 to 134 °C | CC(=O)NCc1ccc(CCN2CCC(n3ccc4ccccc43)CC2)cc1
41 | 123 to 124 °C | COc1ccc(CCNC(=O)C(=O)O)cc1OC1CCCC1
42 | 191 to 193 °C | CCCCNC(=O)Nc1ccc(OCC)cc1C(=O)NCC1CCN(C(c2ccccc2)c2ccccc2)CC1
43 | 188 to 190 °C | CCS(=O)(=O)Cc1cccc(-c2nc(=O)c3ccccc3s2)n1
44 | 124 to 126 °C | CC(C)n1nc(-c2c(-c3ccccc3)nn3ccc(N4CCN(C(=O)c5ccccc5)CC4)cc23)ccc1=O
45 | 180 to 182 °C | CCOC(=O)[C@H](CCc1ccccc1)N[C@@H](C)C(=O)N1N=C(c2ccccc2)S[C@H]1C(=O)O

The next lines start with the compound.

Row | Structure (SMILES) | melting point
46 | Cc1ccccc1C(=O)CN1C(=O)C(NC(=O)Nc2cccc(C(=O)O)c2)N=C(c2ccccc2F)c2cccc(C)c21 (centres undefined) | 168 to 176 °C
47 | CCCc1c(O)cc(O)c(C)c1C(=O)OC | 88 to 91 °C
48 | COc1cc(SC(C)C)cc(C#N)c1N | 81 to 82 °C
49 | CC1(C(=O)C(C(O)C(Cl)(Cl)Cl)n2cncn2)CC1 (centres undefined) | 216 to 218 °C
50 | CCCCC(=O)N[C@@H]1CN2C(=O)N(c3cc(Cl)nc(Cl)c3)C(=O)[C@@]2(Cc2ccc(OC(F)(F)F)cc2)C1 | 66.8 °C
51 | CC(C)(C#N)c1cc(C(O)c2cccnc2)cc(C(C)(C)C#N)c1 (centres undefined) | 117 to 120 °C
52 | CCCCc1c2c(nc3cc(F)c(F)cc13)-c1cc3c(c(=O)n1C2)COC(=O)CC3(O)CC (centres undefined) | > 275 °C
53 | CN(C)C(=O)c1ccc(C(C)(C)C)c(N)c1 | 186 to 188 °C
54 | Cc1ccc(N2C(=O)C(O)=C(C(=O)c3ccc(C(C)C)cc3)C2c2ccc(-n3cncn3)cc2)nn1 (centres undefined) | 284 °C
55 | CCn1ncc(C(=O)c2ccc(S(C)(=O)=O)c(C)c2Cl)c1O | 225 to 227 °C
56 | CC(=O)Nc1ccc(C=C(C#N)C(=O)OCC[Si](C)(C)C)cc1 | 136 °C
57 | Cc1cc(C)c([N+](=O)[O-])cc1N1CCC1=O | 102 °C
58 | O=C(NC1CCN(CCc2ccccc2F)C1)C12CC3CC(CC(C3)C1)C2 (centres undefined) | 106 to 108 °C
59 | CC(O)(CCO)c1ccc(Oc2ccccc2)cc1 (centres undefined) | 74 to 75 °C
60 | O=c1cc(Sc2ccc(O)cc2)oc2cc(O)cc(O)c12 | 249 to 251 °C
61 | CCOC12CC(C)(C)C(O1)C(OC(=O)c1ccc([N+](=O)[O-])cc1)C=C2C (centres undefined) | 144 to 146 °C
62 | NCC(c1ccc(F)cc1)C1CCCCC1O (mixture of isomers) | 75 to 76 °C
63 | CCCCCCCCCCCCCCC1(C(=O)OC)CO1 (centres undefined) | 47 to 48 °C
64 | COc1cc(OC)nc(Sc2c(NC(=O)C(F)(F)F)nc(C)n2C)n1 | 160 to 162 °C
65 | COC1(c2ccc3ccccc3c2)OOC12C1CC3CC(C1)CC2C3 (centres undefined) | 116 °C
66 | Cc1ccc(C(C)(C)CCCCC(=O)O)cc1C | 71 to 73 °C
67 | COc1ccc2c(Cc3c(Cl)cncc3Cl)nnc(NN)c2c1 | 297 to 299 °C
68 | O=Cc1cccn1-c1ccc(F)cc1 | 82 to 83 °C
69 | CC(C)(C)CNC(=O)C1=C(C(=O)Nc2cc(OC3CCCC3)c(Cl)cc2F)CCCC1 | 173 to 175 °C
70 | CC(Cc1c[nH]c2ccccc12)NC(=O)C=C1CCC(c2cccc(F)c2)(N(C)C)CC1 (centres undefined) | 163 to 166 °C
71 | CC(C)CCCC(C)NC1=NS(=O)(=O)c2sc(Cl)cc2N1 (centres undefined) | 197 to 199 °C
72 | CSc1nn2c(N)cc(C)nc2c1S(=O)(=O)c1ccc(F)cc1 | > 230 °C

Row | Structure (SMILES) | melting point
73 | COc1cc(OC)c(C2C=CCN(C)C2)c(OC)c1 (centres undefined) | 118 to 122 °C
74 | OC(CCNCc1ccccc1)(COc1ccc(Cl)cc1)c1ccccc1 (centres undefined) | 70 to 71 °C
75 | COC(=O)NNC(=O)Nc1cc(Cl)cc(Cl)c1 | 246 °C
76 | COC1CCc2c(C)c(O)c(C)c(C)c2O1 (centres undefined) | 108 to 110 °C
77 | O=C(O)CCCc1cccc2c1OC=CO2 | 75 to 76 °C
78 | CCC(=O)c1cc2c(Cl)cccc2s1 | 96 to 98 °C
79 | Cc1ccccc1Nc1nc(O)c2sccc2n1 | 243 to 245 °C
80 | O=C(O)c1ccc(C(=O)Nc2nnc(-c3cc(Cl)cc(Cl)c3O)s2)nc1 | 267 °C
81 | O=C(c1sc(NC(=O)N2CCOCC2)nc1-c1ccco1)C1CCCC1 | 108 to 110 °C
82 | Cc1cccc(-c2[nH]c(C(C)C)nc2-c2cccc(-c3ccc([N+](=O)[O-])cc3)c2)n1 | 95 to 105 °C
83 | ICc1nc(-c2ccc3c(c2)OCO3)c2cc3c(cc2n1)OCO3 | 155 to 160 °C
84 | CC(=O)Nc1cc(Cl)ccc1CCOC(C)=O | 129 °C
85 | NNC1=NC2CCCc3cccc(c32)N1 (centres undefined) | 191 to 193 °C
86 | Cc1ccc(N2C(=O)C(O)=C(C(=O)c3ccc(OC(F)(F)F)cc3)C2c2ccc(Cn3cnnn3)cc2)nn1 (centres undefined) | > 300 °C
87 | O=S(=O)(CCl)c1ccc(O)cc1 | 110 °C
88 | O=C1CCC(c2ccc([N+](=O)[O-])cc2)CC1 | 160 to 162 °C
89 | Fc1cccc(F)c1C1=NC(c2ccc(I)cc2)CO1 (centres undefined) | 105 to 106 °C
90 | CC(C)(C)OC(=O)Nc1cc([N+](=O)[O-])c2ncccc2c1 | 134 to 135 °C
91 | N#Cc1ccc(-c2ccc(Cl)cc2)[nH]c1=O | 330 to 339 °C
92 | COc1ccc2c(=O)cc(SC)sc2c1 | 133 to 135 °C
93 | CC(=O)NNC(=S)N1N=C(c2ccc([N+](=O)[O-])cc2)c2cc3c(cc2CC1C)OCO3 (centres undefined) | 118 °C
94 | Cc1cc(O)cc2oc(=O)ccc12 | 256 °C
95 | Cc1nn(C)c(NCC(C)(C)C)c1N=O | 83 to 84 °C
96 | O=[N+]([O-])c1ccc2c(C3=CCN(C[C@H](O)COc4cccc5[nH]ccc45)CC3)c[nH]c2c1 | 225 to 230 °C
97 | CC(Oc1ncn(-c2ccc(Cl)cc2Cl)n1)C(=O)O (centres undefined) | 151 to 153 °C
98 | CS(=O)(=O)c1ccc(-c2cnn(Cc3ccccc3)c(=O)c2-c2ccc(F)c(Cl)c2)cc1 | 134 to 136 °C
99 | CCCCOc1ccc2c(c1)C(N(CC(=O)NC(=N)N)S(C)(=O)=O)CC(C)(C)O2 (centres undefined) | 112 to 114 °C
